Experimental data: patent US20260034103A1, “COMPOSITIONS AND METHODS FOR IMPROVING MEMORY AND COGNITION” (priority 2022, published 2026)

How the values were obtained:
[1] = system: Wistar rats; assay: Novel object recognition test, subchronic PCP-induced cognitive impairment; type: in vivo, rat
Method: The total exploration time of two identical objects in the acquisition trial was measured manually and indicated as the mean±SEM (n=10). No statistical difference was found in the total exploration time among the different groups by one-way ANOVA (P=0.340).
(§1) NDI was calculated using the following equation: novel object interaction time/total interaction time×100(%). Data are represented as the mean±SEM (n=10). Significant difference from control group was indicated by ***P<0.001 (Student's t-test). Significant differences from PCP-treated group were indicated by ##P<0.01, #P<0.05 (Dunnett test). Significant difference from PCP-treated group were indicated by ††P<0.01 (Student's t-test).
Exploration time of each object in retention trial was measured manually and presented as the mean±SEM (n=10). Significant differences from familiar object interaction were indicated by ***P<0.001, **P<0.01 (paired t-test).
A novel object recognition test was conducted to investigate the effect of SP-624 on subchronic PCP-induced cognitive impairment in Wistar rats. Clozapine was used as a positive control.

[2] = system: Long-Evans rats; assay: Novel object recognition test, scopolamine-induced cognitive impairment; type: in vivo, rat; details: 0.1 and 1 mg/kg PO
Method: Total exploration time of two identical objects in the acquisition trial was measured manually and indicated as the mean±SEM (n=8). No statistical difference was found in the total exploration time among the different groups by one-way ANOVA (P=0.115).
as §1, with “(n=8).” for “(n=10).”, “scopolamine-treated vehicle” for “PCP-treated”, “##P<0.01” for “##P<0.01, #P<0.05”, “†††P<0.001” for “††P<0.01”
Exploration time of each object in retention trial was measured manually and presented as the mean±SEM (n=8). Significant differences from familiar object interaction were indicated by **P<0.01, *P<0.05 (paired t-test).
A novel object recognition test (which evaluates visual learning and memory) was conducted to investigate the effect of compound 1 on scopolamine-induced cognitive impairment in Long-Evans rats. Donepezil was used as a positive control. Scopolamine at 0.1 mg/kg SC reduced the novelty discrimination index (NDI) a measure of cognitive function (FIGS. 4-6).

[3] = system: Sprague Dawley rat hippocampal slices; assay: Ex vivo electrophysiology in rat hippocampal slices: mEPSP frequency; type: cell-based
Text: The effect of compound 1 to enhance mEPSPs may be dependent on the influx of extracellular calcium.

[4] = system: adult subjects with major depressive disorder (MDD); assay: Phase 2 clinical trial in MDD: HAM-D Item #17 Retardation; type: in vivo, human; details: 20 mg/day; for HAM-D Item #17 Retardation Change From Baseline, Max / HAM-D Item #17 Retardation Change From Baseline, Mean (SD) / HAM-D Item #17 Retardation Change From Baseline, Median / HAM-D Item #17 Retardation Change From Baseline, Min / HAM-D Item #17 Retardation score, Max / HAM-D Item #17 Retardation score, Mean (SD) / HAM-D Item #17 Retardation score, Median / HAM-D Item #17 Retardation score, Min: mITT, Females
Method: A Phase 2, multicenter, double-blind, randomized, placebo-controlled study of the safety and efficacy of SP-624 in the treatment of adult subjects with major depressive disorder (MDD) as defined by the Diagnostic and Statistical Manual of Mental Disorders, Fifth Edition (DSM-5) was carried out. Following the successful completion of a Screening Phase, subjects were randomized to one of two treatment groups in a 1:1 ratio and received Compound 1 (SP-624) or placebo over a treatment period of four weeks (Treatment Group #1: SP-624 20 mg/day; Treatment Group #2: Placebo).
Prior to initiating the 4-week treatment period, subjects completed a Screening/Baseline period of up to 28 days, during which time all screening assessments were performed, and any current depression medications discontinued. All screening assessments were completed before discontinuing any current depression medications. Subjects returned for a Baseline Visit to complete efficacy and safety assessments. During the treatment period, subjects returned to the investigative site to complete efficacy and safety assessments at the end of Weeks 1, 2, 3, and 4. After the final dose of study drug, subjects completed a follow-up period of two weeks and returned at the end of Weeks 5 and 6. Subjects may be treated with anti-depressant medications according to physician recommendations after completion of the Week 5 Visit.
Each dose of Compound 1 was supplied as two capsules, each containing 10 mg of active pharmaceutical ingredient (API). Matching placebo capsules identical in shape and color to the active capsules were used.
The second cognitive function measurement is HAM-D Item #17 Retardation (slowness of thought and speech, impaired ability to concentrate, decreased motor activity). The answer scale is: 0—Normal speech and thought; 1—Slight retardation at interview (mild psychomotor retardation); 2—Obvious retardation at interview (moderate, some difficulty with interview, noticeable pauses and slowness of thought); 3—Interview difficult (severe psychomotor retardation, very long pauses); 4—Complete stupor (extreme retardation, interview barely possible).

COC1=CC(=O)C[C@@H](C)[C@]12Oc1c(Cl)c(-c3nnc(C)o3)cc(OC)c1C2=O [Compound 1, (2S,6′R)-7-Chloro-2′,4-dimethoxy-6′-methyl-6-(5-methyl-1,3,4-oxadiazol-2-yl)-3H-spiro[1-benzofuran-2,1′-cyclohex[2]ene]-3,4′-dione]
sub-chronic PCP-induced cognitive deficits in the NDI ([1]; 0.01 mg/kg): not
sub-chronic PCP-induced cognitive deficits in the NDI ([1]; 0.1 and 1 mg/kg): significantly attenuated
novelty discrimination index (NDI) reduced by scopolamine [2]: significantly improved
frequency of miniature excitatory post-synaptic potentials (mEPSPs) in the hippocampus [3]: increase the frequency
HAM-D Item #17 Retardation Change From Baseline, Max ([4]; Week 2): 2
HAM-D Item #17 Retardation Change From Baseline, Mean (SD) ([4]; Week 2): −0.2 (0.79)
HAM-D Item #17 Retardation Change From Baseline, Median ([4]; Week 2): 0
HAM-D Item #17 Retardation Change From Baseline, Min ([4]; Week 2): −2
HAM-D Item #17 Retardation score, Max ([4]; Week 2): 2
HAM-D Item #17 Retardation score, Mean (SD) ([4]; Week 2): 0.6 (0.71)
HAM-D Item #17 Retardation score, Median ([4]; Week 2): 0
HAM-D Item #17 Retardation score, Min ([4]; Week 2): 0
HAM-D Item #17 Retardation Change From Baseline, Max ([4]; Week 4): 1
HAM-D Item #17 Retardation Change From Baseline, Mean (SD) ([4]; Week 4): −0.4 (0.82)
HAM-D Item #17 Retardation Change From Baseline, Median ([4]; Week 4): 0
HAM-D Item #17 Retardation Change From Baseline, Min ([4]; Week 4): −2
HAM-D Item #17 Retardation score, Max ([4]; Week 4): 2
HAM-D Item #17 Retardation score, Mean (SD) ([4]; Week 4): 0.4 (0.55)
HAM-D Item #17 Retardation score, Median ([4]; Week 4): 0
HAM-D Item #17 Retardation score, Min ([4]; Week 4): 0
HAM-D Item #17 Retardation, improvement in score vs placebo ([4]; by week 4 of treatment): greater improvement in score
